We go through 14 compounds from US8415309B2, “Bicyclic nucleosides and nucleotides as therapeutic agents” (priority 2009, dated 2013).

pEC50: −log10 of the molar value. Read-outs that look alike come from different tables or passages of the source.

Data set [1] relates to HCV RNA replication (HCV subgenomic replicon in MP-1 cells). Kind of data set: Cell-Based HCV RNA Replication Luciferase Reporter Assay. Particulars: Hepatitis C virus; for inhibition at 50 µM: read-out: Inhibition at 50 μM (%); for pEC50: 72 h.
Data set [2] can be described thus: Cytotoxicity (CellTiter-Blue / MTT) run with the replicon assay. The data set is classed as cell-based. Particulars: human, MP-1 cells. The protocol:
The assay outline includes the following steps on Day 1: (1) Plate cells at a density of 10,000 cells/well of a 96 well plate and incubate 37° C.; (2) Make compound dilutions; (3) Add compound dilutions to cells; (4) Incubate for 72 h. The assay includes the following steps on Day 4: (1) Perform Cell titer blue assay for cytotoxicity (the assay is based on the reduction of resazurin (cell titer blue) into a fluorescent product, resorufin, in metabolically active cells, and the assay can be duplexed with the assay used for HCV replicon luciferase reporter assay); (2) Perform luciferase assay with the Bright-Glo luciferase substrate (Promega) and read luminescence; (3) Process results.
Under the Alamar blue assay protocol, the assay plates are removed from a 37° C. incubator, and 20 μl of CellTiter-Blue™ Reagent is added. The cells are incubated in the 37° C. incubator for 3 h. The assay plates are shaken for 10 sec and fluorescence at 560Ex/590Em nm is recorded. The results are expressed relative to the 100% untreated control using the following equation: […]=100−[(RFUcompound−RFUblank/RFUuntreated−RFUblank)×100]. Alternatively, under the MTT protocol the extent of cytotoxicity is determined via metabolism of the vital dye 3-(4,5-dimethylthiaxol-2-yl)-2,5-diphenyltetrazolium bromide (MTT). MTT (1 mg/ml) was added to each well and plates incubated for 3 hours incubation at 37° C. Wells were aspirated, iso-propanol […] was added and absorbance values read at 540/690 nm. Compound concentrations that developed 50% cytotoxicity (CC50) were calculated using non-linear regression analysis.

A further data set is described as follows: Pharmacokinetics in rats. The data set is classed as in vivo, male Sprague-Dawley rats. The following applies: Rat. The protocol: (§1) The pharmacokinetic properties of Compound 9 were determined in male Sprague-Dawley rats, beagle dogs and cynomolgus monkeys (n=3 in each species) with an oral dose of 5 mg/kg and iv dose of 2 mg/kg. PK parameters were analyzed using the WinNonlin noncompartmental model.

Data set [3] is described as follows: Pharmacokinetics in monkeys. The data set is classed as in vivo, cynomolgus monkeys. The protocol:
as §1

Another data set is described as follows: Pharmacokinetics in dogs. Particulars: Dog. The data set is classed as in vivo, beagle dogs. The procedure: as §1
A further data set can be described thus: Cross-species PK summary. The data set is classed as in vivo, rats, monkeys and dogs. Particulars: Sprague-Dawley (rat), beagle (dog), cynomolgus (monkey), plasma. The protocol:
as §1

Where [4] appears, read: MP-1 cells, luciferase readout, read-out: EC50.
Where [5] appears, read: oral 5 mg/kgBW, read-out: Cmax (maximum concentration observed following the oral dose).

For the compound `C[C@@]1(O)[C@H](O)[C@@H](CO)O[C@H]1c1ccc2c(N)ncnn12` [Compound 9, 4-amino-7-(2-C-methyl-β-D-ribofuranosyl)-pyrrolo[2,1-f][1,2,4]triazine], in data set [1] (50 μM compound), the inhibition at 50 µM worked out at 99%. The pEC50 in data set [1] (setting [4]) was 5.89. The CC50 at 72 h in data set [2] came out at 365 µM. The Cmax in the data set “Pharmacokinetics in rats” (setting [5]) was 2380 nM; in data set [3] (cynomolgus monkey, plasma, 5 mg/kg, oral 5 mg/kgBW, read-out: Cmax (maximum concentration observed following the oral dose)), 820 nM; in the data set “Pharmacokinetics in dogs” (setting [5]), 8360 nM. Further, the “CL (total clearance)” value in the data set “Pharmacokinetics in rats” (single iv 2 mg/kgBW) is on record as 18.8 mL/min/kgBW; in data set [3] (Monkey, single iv 2 mg/kgBW), 20.5 mL/min/kgBW; in “Pharmacokinetics in dogs” (single iv 2 mg/kgBW), 11.4 mL/min/kgBW. Besides, the “Vss (steady state volume distribution)” value in “Pharmacokinetics in rats” (single iv 2 mg/kgBW) came out at 4.19 L/kgBW; in data set [3] (Monkey, single iv 2 mg/kgBW), 2.43 L/kgBW; in “Pharmacokinetics in dogs” (single iv 2 mg/kgBW), 5.22 L/kgBW. In addition, the bioavailability was 83% in “Pharmacokinetics in rats” (male, Sprague-Dawley, plasma, 5 mg/kg, oral 5 mg/kgBW vs iv 2 mg/kgBW, read-out: F % (oral bioavailability)); 33% in data set [3] (cynomolgus monkey, plasma, 5 mg/kg, oral 5 mg/kgBW vs iv 2 mg/kgBW, read-out: F % (oral bioavailability)); 96% in the data set “Pharmacokinetics in dogs” (beagle, plasma, 5 mg/kg, oral 5 mg/kgBW vs iv 2 mg/kgBW, read-out: F % (oral bioavailability)); 33 to 96% in “Cross-species PK summary” (po, 5 mg/kg, range over rat, monkey, dog, read-out: oral bioavailability across species). Besides, the AUC is 13 µM·h in “Pharmacokinetics in rats” (male, Sprague-Dawley, plasma, 5 mg/kg, single iv (2 mg/kgBW) or oral dose (5 mg/kgBW), read-out: AUC (area under the curve of plasma exposure)); 5 µM·h in data set [3] (cynomolgus monkey, plasma, 5 mg/kg, single iv (2 mg/kgBW) or oral dose (5 mg/kgBW), read-out: AUC (area under the curve of plasma exposure)); 24.9 µM·h in “Pharmacokinetics in dogs” (beagle, plasma, 5 mg/kg, single iv (2 mg/kgBW) or oral dose (5 mg/kgBW), read-out: AUC (area under the curve of plasma exposure)). For the same compound, the half-life is 4 h in “Pharmacokinetics in rats” (male, Sprague-Dawley, plasma, single iv (2 mg/kgBW) or oral dose (5 mg/kgBW), read-out: t1/2 (terminal elimination half-life) (converted)); 4.3 h in data set [3] (cynomolgus monkey, plasma, single iv (2 mg/kgBW) or oral dose (5 mg/kgBW), read-out: t1/2 (terminal elimination half-life) (converted)); 7.6 h in the data set “Pharmacokinetics in dogs” (beagle, plasma, single iv (2 mg/kgBW) or oral dose (5 mg/kgBW), read-out: t1/2 (terminal elimination half-life) (converted)); 4 to 7.6 h in “Cross-species PK summary” (range over preclinical animal species (rat, monkey, dog), read-out: plasma / elimination half-life across species).

Regarding `C[C@@]1(O)[C@H](O)[C@@H](CO)O[C@H]1c1cc(F)c2c(N)ncnn12` [Compound 11, 4-amino-5-fluoro-7-(2-C-methyl-β-D-ribofuranosyl)-pyrrolo[2,1-f][1,2,4]triazine], the inhibition at 50 µM in data set [1] (50 μM compound) was 97%. In addition, the pEC50 in data set [1] (setting [4]) is 5.51. In data set [2], this compound had a CC50 at 72 h above 100 µM.

For `C[C@@]1(O)[C@H](O)[C@@H](CO)O[C@H]1c1cc(Cl)c2c(N)ncnn12` [Compound 12, 4-amino-5-chloro-7-(2-C-methyl-β-D-ribofuranosyl)-pyrrolo[2,1-f][1,2,4]triazine], in data set [1] (50 μM compound), the inhibition at 50 µM was found to be 99%. Besides, the pEC50 in data set [1] (setting [4]) is 6.66. In addition, the CC50 at 72 h in data set [2] was 6.5 µM.

As to `C[C@@]1(O)[C@H](O)[C@@H](CO)O[C@H]1c1cc(I)c2c(N)ncnn12` [Compound 13, 4-amino-5-iodo-(2-C-methyl-β-D-ribofuranosyl)-pyrrolo[2,1-f][1,2,4]triazine], the inhibition at 50 µM in data set [1] (50 μM compound) came out at 97%.

Regarding `C[C@@]1(O)[C@H](O)[C@@H](CO)O[C@H]1c1cc(C#N)c2c(N)ncnn12` [Compound 14, 4-amino-7-(2-C-methyl-β-D-ribofuranosyl)-pyrrolo[2,1-f][1,2,4]triazine-5-carbonitrile], the inhibition at 50 µM in data set [1] (50 μM compound) came out at 100%. In addition, in data set [1] (setting [4]), the pEC50 is 5.85. In data set [2], the CC50 at 72 h amounted to 18.8 µM.

Regarding `C[C@@]1(O)[C@H](O)[C@@H](CO)O[C@H]1c1cc(C(N)=O)c2c(N)ncnn12` [Compound 15, 4-amino-7-(2-C-methyl-β-D-ribofuranosyl)-pyrrolo[2,1-f][1,2,4]triazine-5-carboxylic acid amide], in data set [1] (50 μM compound), the inhibition at 50 µM was 100%. In data set [1] (setting [4]), the pEC50 is 8.21. It took 0.37 µM to reach half-maximal cytotoxicity in data set [2] (CC50 at 72 h).

Regarding `C[C@@]1(O)[C@H](O)[C@@H](CO)O[C@H]1c1cc(C#C[Si](C)(C)C)c2c(N)ncnn12` [Compound 16, 4-amino-5-trimethylsilanylethynyl-7-(2-C-methyl-β-D-ribofuranosyl)-pyrrolo[2,1-f][1,2,4]triazine], the inhibition at 50 µM in data set [1] (50 μM compound) came out at 99%.

In the case of `C#Cc1cc([C@@H]2O[C@H](CO)[C@@H](O)[C@@]2(C)O)n2ncnc(N)c12` [Compound 17, 4-Amino-5-ethynyl-7-(2-C-methyl-β-D-ribofuranosyl)-pyrrolo[2,1-f][1,2,4]triazine], the inhibition at 50 µM in data set [1] (50 μM compound) was 98%.

`C[C@@]1(O)[C@H](O)[C@@H](CO)O[C@H]1c1ccc2c(N)nc(N)nn12` [Compound 20, 2,4-diamino-7-(2-C-methyl-β-D-ribofuranosyl)-pyrrolo[2,1-f][1,2,4]triazine]: the inhibition at 50 µM in data set [1] (50 μM compound) turned out to be 19%.

With `C[C@@]1(O)[C@H](O)[C@@H](CO)O[C@H]1c1cc(-c2ncco2)c2c(N)ncnn12` [Compound 22, 4-amino-5-oxazol-2-yl-7-(2-C-methyl-β-D-ribofuranosyl)-pyrrolo[2,1-f][1,2,4]triazine], in data set [1] (50 μM compound), the inhibition at 50 µM turned out to be 95%.

For the compound `C[C@@]1(O)[C@H](O)[C@@H](CO)O[C@H]1c1c(F)cc2c(N)ncnn12` [Compound 32, 4-Amino-6-fluoro-7-(2-C-methyl-β-D-ribofuranosyl)-pyrrolo[2,1-f][1,2,4]triazin-7-yl], in data set [1] (50 μM compound), the inhibition at 50 µM was found to be 23%.

Take `CC(C)(C)C(=O)OCOP(=O)(OCOC(=O)C(C)(C)C)OC[C@H]1O[C@@H](c2ccc3c(N)ncnn23)[C@](C)(O)[C@@H]1O` [Compound 34, Bis-POM (pivaloyloxymethyl) prodrug of 4-amino-7-(2-C-methyl-β-D-ribofuranosyl)-pyrrolo[2,1-f][1,2,4]triazine]: in data set [1], the pEC50 was 5.42 and the inhibition at 50 µM is 100%. In data set [2], this compound had a CC50 at 72 h of 45 µM.

Regarding `C[C@@]1(O)[C@H](O)[C@@H](CO)O[C@H]1c1cc(C2=NCCN2)c2c(N)ncnn12` [Compound 35, 4-amino-5-imidazoline-7-(2-C-methyl-β-D-ribofuranosyl)-pyrrolo[2,1-f][1,2,4]triazine], the inhibition at 50 µM in data set [1] (50 μM compound) came out at 99%.

As to `C[C@@]1(O)[C@H](O)[C@@H](CO)O[C@H]1c1cc(-c2ncc[nH]2)c2c(N)ncnn12` [Compound 38, 4-amino-5-imidazole-7-(2-C-methyl-β-D-ribofuranosyl)-pyrrolo[2,1-f][1,2,4]triazine], the inhibition at 50 µM in data set [1] (50 μM compound) amounted to 99%.
